The values that follow come from patent US9586951B2 (FUJIFILM Corporation, priority 2013, dated 2017).

Each structure is given as a SMILES string.

The target of this assay is T1, ATM (Homo sapiens, UniProt Q13315).
T1 construct: detecting phosphorylation of Chk2 in a human non-small cell lung cancer cell line NCI-H460 (ATCC company); host or cells: NCI-H460 human non-small cell lung cancer cells
T1 sequence (Q13315 whole entry): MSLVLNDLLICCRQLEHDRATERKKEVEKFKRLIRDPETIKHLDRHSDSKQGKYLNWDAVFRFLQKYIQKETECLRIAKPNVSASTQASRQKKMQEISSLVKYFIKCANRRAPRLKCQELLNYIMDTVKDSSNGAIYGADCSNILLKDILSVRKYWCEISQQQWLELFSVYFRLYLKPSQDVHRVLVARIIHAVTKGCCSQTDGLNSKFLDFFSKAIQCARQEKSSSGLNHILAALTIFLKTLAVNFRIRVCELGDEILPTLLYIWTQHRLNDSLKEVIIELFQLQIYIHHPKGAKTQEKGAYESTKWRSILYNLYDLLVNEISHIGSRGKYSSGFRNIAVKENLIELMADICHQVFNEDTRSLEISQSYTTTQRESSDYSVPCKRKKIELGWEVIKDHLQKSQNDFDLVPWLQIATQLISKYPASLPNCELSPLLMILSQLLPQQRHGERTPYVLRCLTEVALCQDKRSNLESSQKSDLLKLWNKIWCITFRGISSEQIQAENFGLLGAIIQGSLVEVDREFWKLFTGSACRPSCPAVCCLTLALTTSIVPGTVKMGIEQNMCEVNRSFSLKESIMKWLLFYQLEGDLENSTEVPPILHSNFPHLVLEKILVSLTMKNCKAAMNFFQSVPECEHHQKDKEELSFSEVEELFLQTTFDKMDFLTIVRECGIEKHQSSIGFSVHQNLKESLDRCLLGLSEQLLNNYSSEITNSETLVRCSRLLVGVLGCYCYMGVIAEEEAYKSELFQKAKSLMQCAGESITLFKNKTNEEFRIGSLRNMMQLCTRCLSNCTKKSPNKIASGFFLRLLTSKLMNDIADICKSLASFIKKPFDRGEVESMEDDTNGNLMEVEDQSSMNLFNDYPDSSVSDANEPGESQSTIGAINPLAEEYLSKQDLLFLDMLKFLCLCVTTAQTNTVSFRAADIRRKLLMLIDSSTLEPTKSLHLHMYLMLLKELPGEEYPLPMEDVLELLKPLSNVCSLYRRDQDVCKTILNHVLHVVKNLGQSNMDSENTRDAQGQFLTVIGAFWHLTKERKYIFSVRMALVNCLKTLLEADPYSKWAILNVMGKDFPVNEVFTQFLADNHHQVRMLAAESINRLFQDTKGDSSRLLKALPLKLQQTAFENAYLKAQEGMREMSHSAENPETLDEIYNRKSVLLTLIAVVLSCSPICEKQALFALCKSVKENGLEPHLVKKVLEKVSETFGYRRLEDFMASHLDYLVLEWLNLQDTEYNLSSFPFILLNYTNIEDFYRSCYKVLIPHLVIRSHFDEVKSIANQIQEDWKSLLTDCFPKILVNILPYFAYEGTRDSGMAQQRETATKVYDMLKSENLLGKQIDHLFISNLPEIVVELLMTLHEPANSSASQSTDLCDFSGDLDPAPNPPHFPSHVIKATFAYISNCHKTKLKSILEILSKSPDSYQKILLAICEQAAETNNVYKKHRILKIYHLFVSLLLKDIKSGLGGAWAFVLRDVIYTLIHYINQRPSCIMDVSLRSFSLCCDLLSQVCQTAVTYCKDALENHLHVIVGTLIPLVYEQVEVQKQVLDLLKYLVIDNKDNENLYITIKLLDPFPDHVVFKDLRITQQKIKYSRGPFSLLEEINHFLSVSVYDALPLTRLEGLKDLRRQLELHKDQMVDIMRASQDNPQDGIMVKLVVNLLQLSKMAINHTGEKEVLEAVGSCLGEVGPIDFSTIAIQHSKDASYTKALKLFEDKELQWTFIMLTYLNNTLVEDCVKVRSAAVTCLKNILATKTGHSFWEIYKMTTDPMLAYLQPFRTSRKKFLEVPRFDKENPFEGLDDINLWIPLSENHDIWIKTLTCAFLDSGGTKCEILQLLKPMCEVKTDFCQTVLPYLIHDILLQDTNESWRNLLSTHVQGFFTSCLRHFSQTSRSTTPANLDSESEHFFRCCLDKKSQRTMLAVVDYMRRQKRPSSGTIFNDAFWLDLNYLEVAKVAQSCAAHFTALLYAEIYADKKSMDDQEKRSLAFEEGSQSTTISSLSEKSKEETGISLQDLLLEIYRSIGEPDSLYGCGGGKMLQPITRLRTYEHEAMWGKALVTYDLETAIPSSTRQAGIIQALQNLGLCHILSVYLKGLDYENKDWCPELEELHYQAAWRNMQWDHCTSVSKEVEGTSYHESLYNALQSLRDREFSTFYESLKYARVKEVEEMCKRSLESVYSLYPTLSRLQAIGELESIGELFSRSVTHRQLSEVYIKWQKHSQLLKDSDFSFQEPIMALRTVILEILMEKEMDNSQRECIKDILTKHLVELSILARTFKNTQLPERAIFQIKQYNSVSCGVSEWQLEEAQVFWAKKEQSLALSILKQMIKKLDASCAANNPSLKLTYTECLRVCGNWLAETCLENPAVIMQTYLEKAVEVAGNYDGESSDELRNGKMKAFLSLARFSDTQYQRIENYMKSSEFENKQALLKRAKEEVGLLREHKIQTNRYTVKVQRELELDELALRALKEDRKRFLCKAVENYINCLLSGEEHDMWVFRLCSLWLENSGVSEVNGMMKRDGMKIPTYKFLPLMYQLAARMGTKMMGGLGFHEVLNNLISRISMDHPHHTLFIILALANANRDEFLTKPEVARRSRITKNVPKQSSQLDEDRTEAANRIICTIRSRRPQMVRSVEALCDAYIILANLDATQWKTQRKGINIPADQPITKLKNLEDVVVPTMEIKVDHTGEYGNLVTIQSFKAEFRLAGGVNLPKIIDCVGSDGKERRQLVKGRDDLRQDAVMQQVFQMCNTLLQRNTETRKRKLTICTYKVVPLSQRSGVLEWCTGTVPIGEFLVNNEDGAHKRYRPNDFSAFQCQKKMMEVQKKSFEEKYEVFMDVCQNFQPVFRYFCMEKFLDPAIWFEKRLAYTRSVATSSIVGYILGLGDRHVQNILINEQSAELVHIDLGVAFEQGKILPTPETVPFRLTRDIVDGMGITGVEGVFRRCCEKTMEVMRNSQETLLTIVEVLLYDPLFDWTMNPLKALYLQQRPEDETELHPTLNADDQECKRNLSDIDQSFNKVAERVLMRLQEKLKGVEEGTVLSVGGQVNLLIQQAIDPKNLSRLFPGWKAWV
In words: ATM inhibition test (phosphorylation of Chk2 generated by ionizing radiation, AlphaScreen SureFire). In kind it is cell-based. The conditions noted are these: phosphorylated Chk2 in NCI-H460 cells, ionizing radiation 8Gy, 1 hour after test compound treatment; read-out: ATM inhibitory activity. The method in brief: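 NCI-H460 cells, compound 1 h pre-treatment, 8Gy IR, further 1 h at 37° C in 5% CO2. Read-out: phospho-Chk2 via AlphaScreen SureFire. % inhibition relative to IR-induced signal window (irradiated vs non-irradiated drug-free wells).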
A general note: Bead proximity is the source of the signal in Alpha formats.
In the case of `CC(CNC1CCCC1)Nc1ccc2c(c1)Sc1cccc(-c3cc(N4CCOCC4)cc(=O)[nH]3)c1S2` (centres unmarked) [Example 1-13-8, 6-(7-((1-(Cyclopentylamino)propan-2-yl)amino)thianthren-1-yl)-4-morpholino pyridin-2 (1H)-one], the IC50 lay within 100 to 500 nM.

In the case of `O=c1cc(N2CCOCC2)cc(-c2cccc3c2Oc2ccc(NC4CCN(CCCc5ccccc5)CC4)cc2C3)[nH]1` [Example 2-28-34, 4-Morpholino-6-(7-((1-(3-phenylpropyl)piperidin-4-yl)amino)-9H-xanthen-4-yl) pyridin-2(1H)-one], the IC50 lay within 500 to 2000 nM.

Regarding `O=c1cc(N2CCOCC2)cc(-c2cccc3c2Sc2ccccc2S3)[nH]1` [Example 1-53, 4-morpholino-6-(thianthren-1-yl)pyridin-2(1H)-one], the IC50 fell in the range of 500 to 2000 nM.

Consider `CN1CCN(c2cc(CNc3ccc4c(c3)Cc3cccc(-c5cc(N6CCOCC6)cc(=O)[nH]5)c3O4)ccn2)CC1` [Example 2-22-2, 6-(7-(((2-(4-methylpiperazin-1-yl)pyridin-4-yl)methyl)amino)-9H-xanthen-4-yl)-4-morpholinopyridin-2(1H)-one], for which the IC50 fell in the range of 100 to 500 nM.

`CCCC(Nc1ccc2c(c1)Sc1cccc(-c3cc(N4CCOCC4)cc(=O)[nH]3)c1S2)[C@H](C)N1CCOCC1` (stereo partly drawn) [Example 1-21-1, 6-(7-(((2S)-2-morpholinohexan-3-yl)amino)thianthren-1-yl)-4-morpholinopyridin-2(1H)-one]: the IC50 was 100 to 500 nM.

For `O=c1cc(N2CCOCC2)cc(-c2cccc3c2Oc2ccc(NCc4nccs4)cc2C3)[nH]1` [Example 2-14-31, 4-Morpholino-6-(7-((thiazol-2-ylmethyl)amino)-9H-xanthen-4-yl) pyridin-2(1H)-one], the IC50 was 100 to 500 nM.

On to `CC(Nc1ccc2c(c1)Cc1cccc(-c3cc(N4CCOCC4)cc(=O)[nH]3)c1O2)c1nccc(CF)n1` (centres unmarked) [Example 2-14-64, 6-(7-((1-(4-(Fluoromethyl)pyrimidin-2-yl)ethyl)amino)-9H-xanthen-4-yl)-4-morpholino pyridin-2(1H)-one], for which the IC50 lay within 100 to 500 nM.

Regarding `O=c1cc(N2CCOCC2)cc(-c2cccc3c2Sc2ccc(NCCN4CCSCC4)cc2S3)[nH]1` [Example 1-16-4, 4-Morpholino-6-(7-((2-thiomorpholinoethyl)amino)thianthren-1-yl)pyridin-2(1H)-one], the IC50 was below 100 nM.

As to `CC(C)Oc1cncc(CNc2ccc3c(c2)Cc2cccc(-c4cc(N5CCOCC5)cc(=O)[nH]4)c2O3)c1` [Example 2-2-65, 6-(7-(((5-Isopropoxypyridin-3-yl)methyl)amino)-9H-xanthen-4-yl)-4-morpholino pyridin-2(1H)-one], the IC50 lay within 100 to 500 nM.

With `Cc1cncc(C(C)Nc2ccc3c(c2)Cc2cccc(-c4cc(N5CCOCC5)cc(=O)[nH]4)c2O3)c1` (single isomer, unassigned) [Example 2-14-88-2, 6-(7-((1-(5-methylpyridin-3-yl)ethyl)amino)-9H-xanthen-4-yl)-4-morpholinopyridin-2(1H)-one], the IC50 lay within 100 to 500 nM.

`COc1ccc(CCN2CCCC(Nc3ccc4c(c3)Sc3cccc(-c5cc(N6CCOCC6)cc(=O)[nH]5)c3O4)CC2)cc1` (centres unmarked) [Example 4-7, 6-(8-((1-(4-Methoxyphenethyl)azepan-4-yl)amino)phenoxathiin-4-yl)-4-morpholinopyridin-2(1H)-one]: the IC50 lay in the range of 100 to 500 nM.

As for `CC(Nc1ccc2c(c1)Cc1cccc(-c3cc(N4CCOCC4)cc(=O)[nH]3)c1O2)C1CC1` (centres unmarked) [Example 2-14-70, 6-(7-((1-Cyclopropylethyl)amino)-9H-xanthen-4-yl)-4-morpholino pyridin-2(1H)-one], the IC50 is 500 to 2000 nM.

Turning to `[N-]=[N+]=NCC(CN1CCOCC1)Nc1ccc2c(c1)Sc1cccc(-c3cc(N4CCOCC4)cc(=O)[nH]3)c1S2` (centres unmarked) [Example 9-1, 6-(7-((1-azide-3-morpholinopropan-2-yl)amino)thianthren-1-yl)-4-morpholinopyridin-2(1H)-one], the IC50 lay within 100 to 500 nM.

On to `Cc1cccc(C(CN)Nc2ccc3c(c2)Cc2cccc(-c4cc(N5CCOCC5)cc(=O)[nH]4)c2O3)n1` (centres unmarked) [Example 2-18, 6-(7-((2-Amino-1-(6-methylpyridin-2-yl)ethyl)amino)-9H-xanthen-4-yl)-4-morpholinopyridin-2(1H)-one], for which the IC50 is 100 to 500 nM.

On to `Cc1nccc(CNc2ccc3c(c2)Sc2cccc(-c4cc(N5CCOCC5)cc(=O)[nH]4)c2S3)n1` [Example 1-12-39, 6-(7-(((2-Methylpyrimidin-4-yl)methyl)amino)thianthren-1-yl)-4-morpholino pyridin-2 (1H)-one], for which the IC50 was in the range of 500 to 2000 nM.

Turning to `O=c1cc(N2CCOCC2)cc(-c2cccc3c2Oc2ccc(NCCCc4cccnc4)cc2C3)[nH]1` [Example 2-14-14, 4-Morpholino-6-(7-((3-(pyridin-3-yl)propyl)amino)-9H-xanthen-4-yl) pyridin-2(1H)-one], the IC50 was in the range of 100 to 500 nM.

Regarding `CC(C)CC(Nc1ccc2c(c1)Sc1cccc(-c3cc(N4CCOCC4)cc(=O)[nH]3)c1S2)[C@H](C)N` (stereo partly drawn) [Example 1-20-4, 6-(7-(((2S)-2-Amino-5-methylhexan-3-yl)amino)thianthren-1-yl)-4-morpholino pyridin-2(1H)-one], the IC50 lay in the range of 500 to 2000 nM.

In the case of `O=c1cc(N2CCOCC2)cc(-c2cccc3c2Oc2ccc(NCc4cncc(-n5ccnc5)c4)cc2C3)[nH]1` [Example 2-2-56, 6-(7-(((5-(1H-Imidazol-1-yl)pyridin-3-yl)methyl)amino)-9H-xanthen-4-yl)-4-morpholino pyridin-2 (1H)-one], the IC50 lay in the range of 100 to 500 nM.

For `N#Cc1ccc(CNc2ccc3c(c2)Cc2ccnc(-c4cc(N5CCOCC5)cc(=O)[nH]4)c2O3)s1` [Example 2-41-17, 5-(((1-(4-Morpholino-6-oxo-1,6-dihydropyridin-2-yl)-5H-chromeno[2,3-c]pyridin-7-yl)amino)methyl)thiophene-2-carbonitrile], the IC50 was in the range of 100 to 500 nM.

As to `CCCCN1CCC(Nc2ccc3c(c2)Cc2cccc(-c4cc(N5CCOCC5)cc(=O)[nH]4)c2O3)CC1C` (centres unmarked) [Example 2-19-2, 6-(7-((1-Butyl-2-methylpiperidin-4-yl)amino)-9H-xanthen-4-yl)-4-morpholinopyridin-2(1H)-one], the IC50 lay within 500 to 2000 nM.

Turning to `CN1CC(CNc2ccc3c(c2)Sc2cccc(-c4cc(N5CCOCC5)cc(=O)[nH]4)c2S3)C1` [Example 1-2-1, 6-(7-(((1-methylazetidin-3-yl)methyl)amino)thianthren-1-yl)-4-morpholinopyridin-2(1H)-one], the IC50 lay in the range of 100 to 500 nM.

As for `CNCCC(Nc1ccc2c(c1)Sc1cccc(-c3cc(N4CCOCC4)cc(=O)[nH]3)c1S2)c1cnc(C)cn1` (centres unmarked) [Example 1-20-11, 6-(7-((3-(Methylamino)-1-(5-methylpyrazin-2-yl)propyl)amino)thianthren-1-yl)-4-morpholino pyridin-2 (1H)-one], the IC50 fell in the range of 500 to 2000 nM.

As to `O=c1cc(N2CCOCC2)cc(-c2cccc3c2Sc2ccc(NCc4cccnc4)cc2S3)[nH]1` [Example 1-12-25, 4-Morpholino-6-(7-((pyridin-3-ylmethyl)amino)thianthren-1-yl)pyridin-2 (1H)-one], the IC50 fell in the range of 100 to 500 nM.

For the molecule `O=c1cc(N2CCOCC2)cc(-c2nccc3c2Oc2ccc(NCc4cncc(C5CC5)c4)cc2C3)[nH]1` [Example 2-41-11, 6-(7-(((5-Cyclopropylpyridin-3-yl)methyl)amino)-5H-chromeno[2,3-c]pyridin-1-yl)-4-morpholino pyridin-2(1H)-one], the IC50 was in the range of 100 to 500 nM.

As to `CN1CCOc2cc(CNc3ccc4c(c3)Cc3cccc(-c5cc(N6CCOCC6)cc(=O)[nH]5)c3O4)cnc21` [Example 2-2-5, 6-(7-(((4-Methyl-3,4-dihydro-2H-pyrido[3,2-b] [1,4]oxazin-7-yl)methyl)amino)-9H-xanthen-4-yl)-4-morpholino pyridin-2 (1H)-one], the IC50 is 100 to 500 nM.

Turning to `O=c1cc(N2CCOCC2)cc(-c2cccc3c2Sc2ccc(NC4CCCN(C5CCCCC5)C4)cc2S3)[nH]1` (centres unmarked) [Example 1-24-1, 6-(7-((1-Cyclohexylpiperidin-3-yl)amino)thianthren-1-yl)-4-morpholinopyridin-2(1H)-one], the IC50 fell in the range of 100 to 500 nM.

Turning to `CC(Nc1ccc2c(c1)Cc1cccc(-c3cc(N4CCOCC4)cc(=O)[nH]3)c1O2)c1ccnc(F)c1` (centres unmarked) [Example 2-14-25], the IC50 lay in the range of 100 to 500 nM.

`Cc1ccc(C(Nc2ccc3c(c2)Sc2cccc(-c4cc(N5CCOCC5)cc(=O)[nH]4)c2S3)C2CNCCO2)nc1` (single isomer, unassigned) [Example 1-55-1, 6-(7-(((5-methylpyridin-2-yl)(morpholin-2-yl)methyl)amino)thianthren-1-yl)-4-morpholinopyridin-2(1H)-one]: the IC50 was below 100 nM.

`Cc1cnc(C(C)Nc2ccc3c(c2)Cc2cccc(-c4cc(N5CCOCC5)cc(=O)[nH]4)c2O3)cn1` (single isomer, unassigned) [Example 2-14-90-1, 6-(7-((1-(5-methylpyrazin-2-yl)ethyl)amino)-9H-xanthen-4-yl)-4-morpholinopyridin-2(1H)-one]: the IC50 fell in the range of 500 to 2000 nM.

In the case of `O=c1cc(N2CCOCC2)cc(-c2cccc3c2Oc2ccc(NC4CCN(CC(O)c5ccccc5)CC4)cc2C3)[nH]1` (centres unmarked) [Example 2-30-13, 6-(7-((1-(2-Hydroxy-2-phenylethyl)piperidin-4-yl)amino)-9H-xanthen-4-yl)-4-morpholino pyridin-2(1H)-one], the IC50 lay within 100 to 500 nM.

Turning to `COC[C@H](CN1CCOCC1)Nc1ccc2c(c1)Cc1cccc(-c3cc(N4CCOCC4)cc(=O)[nH]3)c1O2` [Example 12-5, (S)-6-(7-((1-methoxy-3-morpholinopropan-2-yl)amino)-9H-xanthen-4-yl)-4-morpholinopyridin-2(1H)-one], the IC50 was in the range of 100 to 500 nM.

For the molecule `Cc1csc(CNc2ccc3c(c2)Cc2cccc(-c4cc(N5CCOCC5)cc(=O)[nH]4)c2O3)n1` [Example 2-14-42, 6-(7-(((4-Methylthiazol-2-yl)methyl)amino)-9H-xanthen-4-yl)-4-morpholino pyridin-2(1H)-one], the IC50 is 100 to 500 nM.
